Assay [1] concerns slo1 (cbv1 isoform)+β4 BK channels. The assay can be described thus: Channel activity (NPo) in POPE/POPS bilayers, cbv1+β4. The settings on record: 10 μM. The class given is biochemical, rat. The text has this:
(§1) BK channel-forming slo1 cDNA (cbv1 isoform; AY330293) was cloned from rat cerebral artery SM cells, and inserted into pcDNA3.1 vector as described. BK β1 cDNA (KCNMB1 product; NP_011452; FJ154955) were isolated from rat cerebral artery SM cells and cloned as described. β4 cDNA (KCNMB4; NP_055320; AY028605) were generously provided by Dr. Ligia Toro. CHO cells were transiently transfected with cbv1 ± β1-, or β4-carrying pcDNA3.1 using X-tremeGENE HP (Sigma-Aldrich). […]
(§2) Proteins for electrophysiological recordings in artificial lipid bilayers remained untagged. […] BK channel-mediated ionic current was recorded in planar lipid bilayers consisting of a POPE:POPS 3:1 (w/w) mixture. […]
(§3) Patch-clamp and bilayer data were analyzed using Clampfit 10.7 software (Molecular Devices). […] Drug-induced NPo changes were determined by comparing baseline NPo (i.e., NPo with the patch/cell perfused with bath solution) to the NPo from the same patch/cell exposed to the agent under study (DMSO/PROG/oxime) dissolved in bath solution. NPo and mean open time values were automatically calculated using Clampfit 10.7, the latter using a 50% threshold detection event.

For assay [2], the system named is BK β4 subunit (KCNMB4 product). Briefly: Thermal unfolding (MST) of purified wt β4. The class given is binding. More on the design: delta (Δ) of onset to inflection point: unit not given here. The text has this:
(§4) BK channel-forming slo1 cDNA (cbv1 isoform; AY330293) was cloned from rat cerebral artery SM cells, and inserted into pcDNA3.1 vector as described. BK β1 cDNA (KCNMB1 product; NP_011452; FJ154955) were isolated from rat cerebral artery SM cells and cloned as described. β4 cDNA (KCNMB4; NP_055320; AY028605) were generously provided by Dr. Ligia Toro. CHO cells were transiently transfected with cbv1 ± β1-, or β4-carrying pcDNA3.1 using X-tremeGENE HP (Sigma-Aldrich). Mutations to β1/4 cDNAs were conducted by Genscript, with sequences being confirmed to be >99% identical to KCNMB1 product; NP_011452 or β4 KCNMB4; NP_055320; respectively. β1/4 and mutant constructs were flag-tagged (DYKDDDDK-tag) by Genscript services for subsequent immunoprecipitation and use in microscale thermophoresis studies.
(§5) Wt β1, wt β4 and mutant constructs were purified by immunoprecipitation using Dynabeads Protein G Kit (10007D by Invitrogen) and following the manufacturer’s instructions. […] The unfolding profile of a protein is a plot of its fluorescence signal against temperature. […] During the heating process, fluorescence is recorded at 330 and 350 nm. The resulting fluorescence ratio change is then analyzed for onset and inflection points. The temperature of onset and inflection is determined using built-in analysis function in Nanotemper PR.therm-control software. […]

The next assay deals with T1, cbv1+β1Y32V (Rattus norvegicus, UniProt P97678, Y32V).
T1 construct: made in house; host or cells: CHO cells, transient transfection; sucrose-gradient membrane preparation
Briefly: Channel activity (NPo) in POPE/POPS bilayers, cbv1+β1Y32V. The format is biochemical. To be noted: for normalized NPo, time course Fig 2E: Y32V PROG.
Excerpt: as §4
Proteins for electrophysiological recordings in artificial lipid bilayers remained untagged. Cells were transiently transfected as described above, pelleted and re-suspended on ice in 10 ml of buffer solution of the following composition (mM): 30 KCl, 2 MgCl2, 10 HEPES, 5 EGTA; pH 7.2. A membrane preparation was obtained using a sucrose gradient as described. Aliquots were stored at −80 °C. BK channel-mediated ionic current was recorded in planar lipid bilayers consisting of a POPE:POPS 3:1 (w/w) mixture. Lipid mixtures were dried under N2 and re-suspended in 25 mg/ml of n-decane BK currents following incorporation into horizontal bilayers at 300/30 mM cis/trans gradient as detailed elsewhere. Ion currents were obtained during a 10-min gap-free recording at 0 mV in the presence of 0.01, 10 μM PROG, 10 μM PROG-oxime, or vehicle control (dimethyl sulfoxide; DMSO). Currents were obtained in gap-free mode using a Warner BC-525D amplifier, low pass-filtered at 1 kHz and sampled at 5 kHz with Digidata 1550B/pCLAMP 11 (Molecular Devices). For comparison with previous data from us[16],[17],[45]–[47], studies were conducted at 20–22 °C. PROG stock, oxime stock or vehicle control (DMSO) was added to the bilayer cis chamber to reach final concentrations (0.01–10 µM), with all compounds being dissolved with the same concentration of DMSO (0.1%); n = 5–10 for each group.
Patch-clamp and bilayer data were analyzed using Clampfit 10.7 software (Molecular Devices). NPo was used as an index of channel steady-state activity where N = number of channels in the patch (defined as a maximal number of opening levels at Po≤1) and Po=single channel open probability. Drug-induced NPo changes were determined by comparing baseline NPo (i.e., NPo with the patch/cell perfused with bath solution) to the NPo from the same patch/cell exposed to the agent under study (DMSO/PROG/oxime) dissolved in bath solution. NPo and mean open time values were automatically calculated using Clampfit 10.7, the latter using a 50% threshold detection event.

Another assay concerns the target T2, cbv1+β1Y32F (Rattus norvegicus, UniProt P97678, Y32F).
T2 construct: made in house; host or cells: CHO cells, transient transfection; sucrose-gradient membrane preparation
Briefly: Channel activity (NPo) in POPE/POPS bilayers, cbv1+β1Y32F. The class given is biochemical.
Excerpt: as §1, §2, §3

For assay [3], the system named is β1-β4 chimera (loop of β4 with β1 TMs). The assay can be described thus: Thermal unfolding (MST) of β1-β4 chimera. The class given is binding. The settings on record: 0.004 μM.
Excerpt: as §4, §5

For the next assay, the target named is T3, β1Y42V (Rattus norvegicus, UniProt P97678, Y42V).
T3 construct: FLAG (DYKDDDDK); made in house; host or cells: CHO cells, transient transfection, anti-flag immunoprecipitation
Briefly: Thermal unfolding (MST) of β1Y42V. The format is binding.
Excerpt: as §4, §5

Another assay has as its target T4, cbv1+β1Y42V (Rattus norvegicus, UniProt P97678, Y42V).
T4 construct: made in house; host or cells: CHO cells, transient transfection; sucrose-gradient membrane preparation
Briefly: Channel activity (NPo) in POPE/POPS bilayers, cbv1+β1Y42V. The format is biochemical.
Excerpt: as §1, §2, §3

A further assay concerns the target T5, cbv1+β1W87F (Rattus norvegicus, UniProt P97678, W87F).
T5 construct: made in house; host or cells: CHO cells, transient transfection; sucrose-gradient membrane preparation
Briefly: Channel activity (NPo) in POPE/POPS bilayers, cbv1+β1W87F. The format is biochemical.
Excerpt: as §1, §2, §3

“And” between values parts separate entries of the source, which are not always exact repeats. Identical values can stand only once.

T4 sequence (P97678 whole entry Y42V): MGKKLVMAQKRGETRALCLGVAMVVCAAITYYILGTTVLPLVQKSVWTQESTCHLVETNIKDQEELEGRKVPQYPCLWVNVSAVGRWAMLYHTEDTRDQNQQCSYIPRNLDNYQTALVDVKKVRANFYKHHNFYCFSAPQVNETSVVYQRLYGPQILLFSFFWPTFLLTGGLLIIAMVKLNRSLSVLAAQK
T4 sequence (Q62976 1-1148 isoform Q62976-2 partner): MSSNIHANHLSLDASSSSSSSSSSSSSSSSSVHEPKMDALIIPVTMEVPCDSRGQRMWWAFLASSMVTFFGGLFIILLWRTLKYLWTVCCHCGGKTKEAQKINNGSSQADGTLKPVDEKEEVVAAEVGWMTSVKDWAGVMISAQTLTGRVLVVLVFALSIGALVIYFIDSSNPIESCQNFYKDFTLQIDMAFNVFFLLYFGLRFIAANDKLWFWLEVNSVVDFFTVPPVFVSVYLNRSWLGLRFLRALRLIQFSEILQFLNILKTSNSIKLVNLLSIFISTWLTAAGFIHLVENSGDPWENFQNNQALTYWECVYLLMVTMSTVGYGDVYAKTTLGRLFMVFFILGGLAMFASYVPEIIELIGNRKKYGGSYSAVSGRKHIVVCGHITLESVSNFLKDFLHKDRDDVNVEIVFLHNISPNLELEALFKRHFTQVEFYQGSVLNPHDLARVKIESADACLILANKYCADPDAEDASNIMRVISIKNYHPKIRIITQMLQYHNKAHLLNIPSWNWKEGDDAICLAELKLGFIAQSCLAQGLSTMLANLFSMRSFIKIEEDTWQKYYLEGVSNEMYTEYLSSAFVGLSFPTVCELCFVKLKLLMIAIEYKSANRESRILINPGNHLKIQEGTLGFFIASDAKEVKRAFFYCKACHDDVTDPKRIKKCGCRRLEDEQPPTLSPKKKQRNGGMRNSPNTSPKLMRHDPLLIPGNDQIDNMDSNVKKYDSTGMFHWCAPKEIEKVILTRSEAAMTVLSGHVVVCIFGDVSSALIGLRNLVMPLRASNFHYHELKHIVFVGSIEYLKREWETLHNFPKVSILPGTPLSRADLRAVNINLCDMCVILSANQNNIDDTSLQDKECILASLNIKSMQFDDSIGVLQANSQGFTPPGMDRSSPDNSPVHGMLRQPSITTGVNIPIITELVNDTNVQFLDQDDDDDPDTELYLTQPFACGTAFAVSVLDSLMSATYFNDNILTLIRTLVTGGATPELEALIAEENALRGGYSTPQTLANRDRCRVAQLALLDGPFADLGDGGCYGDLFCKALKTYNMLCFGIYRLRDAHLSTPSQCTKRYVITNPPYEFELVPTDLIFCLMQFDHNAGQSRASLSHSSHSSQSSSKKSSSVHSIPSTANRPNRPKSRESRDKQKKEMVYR
T2 sequence (P97678 whole entry Y32F): as the sequence (P97678 whole entry Y42V) above, with Y32F, V42Y counted along it
T2 sequence (Q62976 1-1148 isoform Q62976-2 partner): as the sequence (Q62976 1-1148 isoform Q62976-2 partner) above
T1 sequence (P97678 whole entry Y32V): as the sequence (P97678 whole entry Y42V) above, with Y32V, V42Y counted along it
T1 sequence (Q62976 1-1148 isoform Q62976-2 partner): as the sequence (Q62976 1-1148 isoform Q62976-2 partner) above
T5 sequence (P97678 whole entry W87F): as the sequence (P97678 whole entry Y42V) above, with V42Y, W87F counted along it
T5 sequence (Q62976 1-1148 isoform Q62976-2 partner): as the sequence (Q62976 1-1148 isoform Q62976-2 partner) above
T3 sequence (P97678 whole entry Y42V): as the sequence (P97678 whole entry Y42V) above

`CC(=O)[C@H]1CC[C@H]2[C@@H]3CCC4=CC(=O)CC[C@]4(C)[C@H]3CC[C@]12C` [PROG, Progesterone]: the “action on channel activity (NPo)” value in assay [1] was “readily and robustly activated”; on cbv1+β1Y32V (10 µM, vs DMSO), “effectively abolished PROG action”; at cbv1+β1Y32F (10 µM, vs DMSO), “significantly activated”; at cbv1+β1Y42V (10 µM, vs DMSO), “significantly activated”; at cbv1+β1W87F (10 µM, vs vehicle), “effectively abolished PROG action”. For the same molecule, in assay [2] (10 μM PROG, individual records (Fig 1C)), the “delta (Δ) of onset to inflection point” value was 24.8 and 1.81 and 4.188 and 7.2 and 3.495 and 5.4. Besides, the “effect on thermal unfolding / binding” value in assay [2] (4–10 μM) is “exerted a similar effect on the thermal unfolding of β4”; in assay [3], “still bound and destabilized the protein structure”. For the same molecule, the “normalized NPo, time course Fig 2E” value at cbv1+β1Y32V (time 1 min (normalisation reference)) was 1; at cbv1+β1Y32V (time 3 min) it was 1.125 and 0.8919 and 0.9083 and 0.945 and 0.929; on cbv1+β1Y32V (time 5 min), 0.9853 and 0.9339 and 0.8202 and 0.8981 and 0.6799; at cbv1+β1Y32V (time 6 min), 1.106 and 1.228 and 1.117 and 1.276 and 0.8487; at cbv1+β1Y32V (time 7 min) it was 1.144 and 0.9028 and 1.206 and 0.9453; at cbv1+β1Y32V (time 8 min), 0.6757 and 1.202 and 0.918 and 1.1397. The “normalized NPo, time course Fig 2E” value on cbv1+β1Y32V (time 9 min) was 0.5676 and 0.9266 and 0.822 and 1.088; on cbv1+β1Y32V (time 10 min) it was 0.7195 and 0.8661 and 0.9555 and 1.102. Moreover, the “channel activity (NPo) with prog, normalized” value on cbv1+β1Y32F (SFig3A, cbv1+y32f, individual bilayers) is 3.7931 and 1.379 and 2.626 and 0.9886 and 1.589; on cbv1+β1Y42V (SFig3A, cbv1+y42v, individual bilayers) it was 1.4717 and 1.041 and 1.9292 and 1.306 and 1.182. The binding entry at β1Y42V was “still bind PROG”. Moreover, at cbv1+β1W87F (cbv1+w87F prog, time 1 min (normalisation reference)), the “normalized NPo, time course Fig 4E” value amounted to 1.

The values above are taken from paper PMC10636063, “Progesterone activation of β1-containing BK channels involves two binding sites” (Nature Communications, 2023).
